Test results as given in article PMC5289826 (PLoS ONE, 2017).

What was measured:
human 17β-HSD1 = test system: T1, human 17β-HSD1; assay: 17β-HSD1 enzyme activity in cell lysates (estrone to estradiol); type: biochemical; conditions: 1 μM, 200 nM estrone
T1 construct: expressed in transfected cells; host or cells: HEK-293 (transient)
Procedure: (§1) Human embryonic kidney (HEK-293) cells either stably expressing human 11β-HSD1 and H6PDH (HHH7 clone, [38]) or 11β-HSD2 (AT8 clone, [39]), or transiently expressing human 17β-HSD1 or 17β-HSD2, were cultivated in Dulbecco’s modified Eagle medium (DMEM) containing 4.5 g/L glucose, 10% fetal bovine serum, 100 U/mL penicillin, 0.1 mg/mL streptomycin, 1 × MEM nonessential amino acids, and 10 mM HEPES buffer, pH 7.4. Cells were washed with phosphate-buffered saline (PBS), centrifuged for 4 min at 150 × g, and the cell pellets were snap frozen on dry ice and stored at −80°C until further use.
(§2) Cell lysates were resuspended in TS2 buffer (100 mM NaCl, 1 mM EGTA, 1 mM EDTA, 1 mM MgCl2, 250 mM sucrose, 20 mM Tris-HCl, pH 7.4), followed by sonication at 4°C using a Hielscher UP50H ultrasonic processor (0.3 cycle, 20 amplitude %, 20 impulses; Hielscher Ultrasonics GmbH, Teltow Germany). Cell lysates, reaction mixture, and either vehicle (DMSO) or inhibitor were incubated for 10 min at 37°C in a final volume of 22.2 μL. The solvent concentration was 0.1%. […] 11β-HSD2 activity was measured in the presence of 50 nM cortisol and 500 μM NAD^+. An amount of 50 nCi of radiolabeled tracer substrate was included in the experiments. […] The bands of the corresponding steroids were excised, followed by scintillation counting and calculation of the amount of substrate conversion. Data were obtained from at least three independent measurements. Glycyrrhetinic acid (CTRL 1) was used as positive control for 11β-HSD1 and 11β-HSD2 inhibition, apigenin (CTRL 2) for 17β-HSD1, and compound 22 from Vuorinen et al. [40](CTRL 3) for 17β-HSD2 inhibition.

human 17β-HSD2 = test system: T2, human 17β-HSD2; assay: 17β-HSD2 enzyme activity in cell lysates (estradiol to estrone); type: biochemical; conditions: 1 μM, 200 nM estradiol
T2 construct: expressed in transfected cells; host or cells: HEK-293 (transient)
Procedure: as §1, §2

human 11β-HSD1 = test system: T3, human 11β-HSD1; assay: 11β-HSD1 activity assay in intact HEK-293 cells co-expressing 11β-HSD1 and H6PDH; type: cell-based; conditions: 100 nM and 1 μM compound; intact HHH7 cells; 200 nM cortisone; 30 min
T3 construct: expressed in transfected cells
Procedure: HEK-293 cells co-expressing 11β-HSD1 and H6PDH were seeded in poly-L-lysine coated 96 well-plates (30’000 cells/well) and cultivated in DMEM. At 24 h post-seeding, the cells were washed with charcoal-treated serum-free DMEM (cDMEM) and incubated for 3 h in 100 μL cDMEM. Then, the medium was aspirated and replaced by 30 μL cDMEM. […] The reactions were terminated after 30 min of incubation, followed by analysis of substrate conversion as described above. Data were obtained from at least three independent measurements.

endogenous 11β-HSD1 = biological target: T4, endogenous 11β-HSD1 (Homo sapiens, UniProt P28845); assay: 11β-HSD1-dependent cortisol formation in intact primary human keratinocytes; type: cell-based; conditions: for inhibition of cortisol formation (in words): 1 μM compound, primary human keratinocytes, 1 μM cortisone, 24 h; for IC50: read-out: estimated IC50 of cortisol formation
T4 construct: intact primary human keratinocytes expressing endogenous 11β-HSD1; host or cells: primary human epidermal keratinocytes
Procedure: Human epidermal keratinocytes obtained from CELLnTEC advanced Cell Systems (Berne, Switzerland) were maintained in CnT-Prime medium (http://cellntec.com/products/cnt-pr/#datasheet) at 37°C. Cells were subcultivated before reaching confluence. After reaching 90% of confluence, the keratinocytes were washed twice with PBS prior to change to cortisol-free CnT-Prime medium (custom-made by CELLnTEC). […] Compound CAS 1009373-58-3 (CTRL 4, Merck Millipore, Darmstadt, Germany) was used as positive control. After 24 h cell culture supernatants were collected and the amount of cortisol produced was measured on a Mulstiskan Ascent plate reader (MTX Lab Systems, Bradenton, FL) using the Cortisol Parameter Assay Kit (R&D Systems, Minneapolis, MN) following the instructions by the manufacturer. Cell viability was assessed using PrestoBlue® Cell Viability Reagent (Invitrogen, Carlsbad, CA) according to the manufacturer’s instructions.

human skin biopsies [1] = assay: Dermal collagen III content in UV exposed ex vivo human skin biopsies (anti-collagen III antibody)
Procedure: (§3) Ex vivo skin experiments were performed as contract research by Cutech Biotechnology following the Helsinki declaration and who obtained permission as well as informed consent from the patient (Padova, Italy). Human skin from abdominal plastic surgery of a donor was used. Skin samples were cut in pieces of approximately 8 × 3 mm (diameter × thickness) and cultured in an air-liquid interface in a perforated ring of stainless steel in contact with culture medium (modified Williams’ E medium, Sigma Aldrich) up to day 6. The culture medium was renewed on day 0 and day 3. The test compounds were applied topically and renewed daily. The application was performed as follows: skin biopsies were gently cleaned with a cotton pad and 4 μL of 10 μM or 100 μM test compound were applied on top of each piece and covered with a 6 mm (diameter) delivery membrane (CoTran 9728 Controlled Caliper Ethylene Vinyl Acetate Membrane, 3M, St. Paul, MN, USA).
Skin biopsies were subjected to UV irradiation using a BIO-SUN system (Vilber Lourmat, Eberhardzell, Germany). The system had the following specifications: Lamp wave length: UVB 312 nm (range 280–320 nm) and UVA 365 nm (range 355–375 nm), range of measure (irradiance): accuracy and linearity ± 0.2%, range of programmed energy: 0.1 to 99.99 J/cm^2, intensity: UVA (365 nm) 5 mW/cm^2, UVB (312 nm) 3 mW/cm^2, UVA + UVB: 5.6 + 3.2 mW/cm^2, respectively. The selected UV irradiation intensities were 40% and 80% of the Biological Effective Dose (BED) of 7.5 J/cm^2 UV daylight as described by Del Bino et al.. UV 40% BED = 3.0 J/cm^2 (= 0.1 J/cm^2 UVB + 2.9 J/cm^2 UVA); UV 80% = 6.0 J/cm^2 (= 0.2 J/cm^2 UVB + 5.8 J/cm^2 UVA).
Furthermore, in a preliminary set of experiments, skin biopsies were UV irradiated at 3.0 J/cm^2 and 6.0 J/cm^2 and treated topically with 4 μL of 10 μM or 100 μM of the respective inhibitor, followed by determination of collagen III content using a mouse monoclonal anti-collagen III antibody (Sigma Aldrich).

human skin biopsies [2] = assay: Dermal total collagen content in ex vivo human skin biopsies (Picrosirius Red); conditions: 10 μM or 100 μM inhibitor topically, 6 days; 100 nM cortisone for 5 days
Procedure: as §3
Skin viability was assessed in two skin biopsies after 6 days of treatment using methylthiazolyldiphenyl‐tetrazolium bromide (MTT, Sigma Aldrich) staining. Total dermal collagen in skin sections was semi-quantitatively evaluated by Picrosirius Red histochemical staining (using Picric Acid, Fast Green FCF and Direct Red from Sigma Aldrich) that dyes collagen fibers in purple-red. […] The evaluation was performed by estimating both color intensity and distribution using IMAGE J (NIH) analysis software, allowing to obtain a semi-quantitative evaluation of dermal collagen (collagen score). Two slides of each skin sample were processed by image acquisition and related analysis (i.e. 12 images for each treatment).

[3] = test system: T5, recombinant human 11β-HSD2; assay: 11β-HSD2 enzyme activity in cell lysates (cortisol to cortisone); type: biochemical; conditions: 1 μM compound; lysates of HEK-293 cells; 50 nM cortisol
T5 construct: expressed in transfected cells
Procedure: as §1, §2

[4] = biological target: T6, recombinant human 11β-HSD1 (Homo sapiens, UniProt P28845); assay: 11β-HSD1 enzyme activity in cell lysates (cortisone to cortisol, radiolabeled tracer, TLC); type: biochemical; conditions: for 11β-HSD1 Residual activity, % of control at 100 nM: 100 nM compound; for 11β-HSD1 Residual activity, % of control at 100 nM / 11β-HSD1 Residual activity, % of control at 1 μM: lysates of HEK-293 cells, 200 nM cortisone, mean of three experiments; for 11β-HSD1 Residual activity, % of control at 1 μM: 1 μM compound
T6 construct: expressed in transfected cells
Procedure: as §1, §2

[5] = 100 μM, 6.0 J/cm^2 UV irradiation

T6 sequence (P28845 whole entry): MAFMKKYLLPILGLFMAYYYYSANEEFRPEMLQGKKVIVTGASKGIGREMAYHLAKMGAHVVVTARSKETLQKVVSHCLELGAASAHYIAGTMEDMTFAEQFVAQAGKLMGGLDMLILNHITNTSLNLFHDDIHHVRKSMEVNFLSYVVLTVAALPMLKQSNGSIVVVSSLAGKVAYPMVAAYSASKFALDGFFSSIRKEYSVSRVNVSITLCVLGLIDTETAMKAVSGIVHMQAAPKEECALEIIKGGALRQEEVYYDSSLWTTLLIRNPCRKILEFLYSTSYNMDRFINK
T4 sequence (P28845 whole entry): as above

Row | SMILES | inhibition of 17β-HSD1 (in words) (human 17β-HSD1) | inhibition of 17β-HSD2 (in words) (human 17β-HSD2) | inhibition of 11β-HSD1 in intact cells (in words) (human 11β-HSD1) | inhibition of cortisol formation (in words) (endogenous 11β-HSD1) | IC50 (endogenous 11β-HSD1) [µM] | collagen III vs UV treated vehicle control (in words) (human skin biopsies [1]; 10 μM, UV irradiated biopsies) | collagen III vs UV treated vehicle control (in words) (human skin biopsies [1]; [5]) | effect on cortisone-induced collagen decrease (in words) (human skin biopsies [2]) | 11β-HSD2 Residual activity, % of control at 1 μM [3] | IC50 [4] [µM] | 11β-HSD1 Residual activity, % of control at 100 nM [4] | 11β-HSD1 Residual activity, % of control at 1 μM [4] | melting point [°C] | collagen III vs UV treated vehicle control (in words) (human skin biopsies [1]; 100 μM, 3.0 J/cm^2 UV irradiation, p<0.01) | effect on UV-mediated decrease in collagen III levels (in words) (human skin biopsies [1]; topical 10 μM or 100 μM, 3.0 and 6.0 J/cm^2 UV, preliminary)
1 | Cc1ccc(-c2cccc(C(=O)N3CCC(C)CC3)c2)cn1 [2b, (4-Methylpiperidin-1-yl)(3-(6-methylpyridin-3-yl)phenyl)methanone] | selective | selective | almost completely inhibited | almost completely inhibited | ≤ 0.1 | did not result in significant changes | significantly higher collagen III levels | prevented the cortisone-induced collagen decrease | > 90 % of control | 0.0422 | 36 % of control | 5 % of control | – | – | –
2 | Cc1ccc(-c2cccc(C(=O)N3CCCCCC3)c2)cc1F [3e, Azepan-1-yl(3’-fluoro-4’-methyl-[1,1’-biphenyl]-3-yl)methanone] | selective | selective | almost completely inhibited | almost completely inhibited | ≤ 0.1 | – | significantly higher collagen III | prevented the cortisone-induced collagen decrease | > 90 % of control | 0.0345 | 19 % of control | 1 % of control | 106 to 108 | significantly higher collagen III | prevented the decrease in collagen III levels
3 | CC1CCN(C(=O)c2cccc(-c3ccc(O)cc3)c2)CC1 [7b, (4’-Hydroxy-[1,1’-biphenyl]-3-yl)(4-methylpiperidin-1-yl)methanone] | selective | selective | almost completely inhibited | almost completely inhibited | ≤ 0.1 | – | – | – | > 90 % of control | 0.0404 | 38 % of control | 5 % of control | – | – | –
4 | O=C(c1cccc(-c2ccccc2)c1)N1CCCCCC1 [12e, [1,1’-Biphenyl]-3-yl(azepan-1-yl)methanone] | selective | selective | almost completely inhibited | almost completely inhibited | ≤ 0.1 | did not result in significant changes | significantly higher collagen III levels | prevented the cortisone-induced collagen decrease | > 90 % of control | 0.0234 | 21 % of control | – | – | – | –
